Data: ChEMBL document CHEMBL1153272, “(2-Aryl-5-methylimidazol-4-ylcarbonyl)guanidines and (2-aryl-5-methyloxazol-4-ylcarbonyl)guanidines as NHE-1 inhibitors” (Bioorg Med Chem Lett, 2009)

Tests used:
[1] = target: Sodium/hydrogen exchanger 1 (Homo sapiens, UniProt P19634); assay: Inhibition of human NHE1 expressed in PS120 cells assessed as imposed acidosis; format: cell-based
Heart [2] = assay: Cardioprotective activity in Langendorff perfused rat heart assessed as recovery of rate pressure product at 10 uM treated 10 mins before global ischemia challenge for 30 mins followed by 30 mins of reperfusion; format: functional
Heart [3] = assay: Cardioprotective activity in Langendorff perfused rat heart assessed as left ventricular end diastolic pressure at 10 uM treated 10 mins before global ischemia challenge for 30 mins followed by 30 mins of reperfusion; format: functional
Rattus norvegicus = assay: Cardioprotective activity in Langendorff perfused rat myocardial infarction model assessed as ratio of myocardial infarction size to area at risk at 0.1 mg/kg, iv administered 5 mins before onset ischemia challenge followed by 90 mins reperfusion; format: functional, Myocardium

Sequence of Sodium/hydrogen exchanger 1 (P19634 whole entry, the tested form may be a part): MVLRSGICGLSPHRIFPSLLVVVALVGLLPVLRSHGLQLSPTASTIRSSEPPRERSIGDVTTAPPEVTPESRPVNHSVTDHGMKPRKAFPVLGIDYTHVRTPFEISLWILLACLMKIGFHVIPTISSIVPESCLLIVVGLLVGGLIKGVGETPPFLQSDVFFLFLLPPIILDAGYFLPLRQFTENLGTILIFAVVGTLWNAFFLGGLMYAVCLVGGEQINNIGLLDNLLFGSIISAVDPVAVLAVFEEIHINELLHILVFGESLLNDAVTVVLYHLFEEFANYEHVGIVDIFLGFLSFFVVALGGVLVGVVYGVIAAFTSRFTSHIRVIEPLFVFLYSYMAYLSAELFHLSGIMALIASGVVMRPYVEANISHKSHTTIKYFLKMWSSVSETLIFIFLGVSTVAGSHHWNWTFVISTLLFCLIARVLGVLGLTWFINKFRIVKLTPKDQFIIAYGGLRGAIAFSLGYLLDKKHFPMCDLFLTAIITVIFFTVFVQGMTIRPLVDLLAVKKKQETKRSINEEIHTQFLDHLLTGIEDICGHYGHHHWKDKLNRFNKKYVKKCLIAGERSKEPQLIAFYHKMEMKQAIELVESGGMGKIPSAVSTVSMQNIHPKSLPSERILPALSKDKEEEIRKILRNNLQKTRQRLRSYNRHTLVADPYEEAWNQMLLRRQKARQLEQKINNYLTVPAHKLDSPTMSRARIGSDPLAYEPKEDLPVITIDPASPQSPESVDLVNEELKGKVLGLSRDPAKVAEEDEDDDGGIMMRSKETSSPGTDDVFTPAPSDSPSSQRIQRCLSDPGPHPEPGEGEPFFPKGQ

IC50 [1] | Compound | Activity (Heart [2]) | Activity (Heart [3]) | Activity (Rattus norvegicus)
0.24 µM | COc1ccc(Cl)cc1-c1nc(C(=O)N=C(N)N)c(C)[nH]1.CS(=O)(=O)O.CS(=O)(=O)O | 60% | 28% | 34%
4.5 µM | Cc1[nH]c(-c2cccc(Cl)c2)nc1C(=O)N=C(N)N |  |  | 
8.2 µM | Cc1oc(-c2ccccc2)nc1C(=O)N=C(N)N |  |  | 
1.1 µM | CS(=O)(=O)O.CS(=O)(=O)O.Cc1ccc(C)c(-c2nc(C(=O)N=C(N)N)c(C)[nH]2)c1 | 33% | 32% | 45%
> 30 µM | Cc1oc(-c2ccc(Cl)cc2)nc1C(=O)N=C(N)N |  |  | 
> 30 µM | Cc1[nH]c(-c2ccc(Cl)cc2)nc1C(=O)N=C(N)N |  |  | 
2.4 µM | Cc1ccccc1-c1nc(C(=O)N=C(N)N)c(C)[nH]1 |  |  | 
> 30 µM | Cc1[nH]c(-c2ccc(F)cc2)nc1C(=O)N=C(N)N |  |  | 
> 30 µM | Cc1cccc(-c2nc(C(=O)N=C(N)N)c(C)[nH]2)c1C |  |  | 
12 µM | Cc1cccc(-c2nc(C(=O)N=C(N)N)c(C)[nH]2)c1 |  |  | 
2.1 µM | COc1ccc(-c2nc(C(=O)N=C(N)N)c(C)[nH]2)cc1OC |  |  | 
0.89 µM | CS(=O)(=O)O.Cc1oc(-c2cc(Cl)cc(Cl)c2)nc1C(=O)N=C(N)N | 26% | 25% | 
0.5 µM | Cc1[nH]c(-c2cccc(Cl)c2Cl)nc1C(=O)N=C(N)N |  |  | 
6.6 µM | Cc1[nH]c(-c2cccc(F)c2F)nc1C(=O)N=C(N)N |  |  | 
> 30 µM | Cc1ccc(-c2nc(C(=O)N=C(N)N)c(C)[nH]2)cc1 |  |  | 
0.52 µM | CS(=O)(=O)O.Cc1[nH]c(-c2cc(Cl)cc(Cl)c2)nc1C(=O)N=C(N)N | 23% | 28% | 
2.8 µM | Cc1oc(-c2cc(F)ccc2F)nc1C(=O)N=C(N)N |  |  | 
4.1 µM | COc1cccc(-c2nc(C(=O)N=C(N)N)c(C)[nH]2)c1 |  |  | 
7.1 µM | Cc1cc(C)cc(-c2nc(C(=O)N=C(N)N)c(C)o2)c1 |  |  | 
6.6 µM | Cc1cccc(-c2nc(C(=O)N=C(N)N)c(C)o2)c1 |  |  | 
12 µM | Cc1[nH]c(-c2ccccc2)nc1C(=O)N=C(N)N |  |  | 

Second part, the compound before the results:

Compound | IC50 [1] | Activity (Heart [2]) | Activity (Heart [3]) | Activity (Rattus norvegicus)
COc1ccc(F)cc1-c1nc(C(=O)N=C(N)N)c(C)[nH]1.CS(=O)(=O)O.CS(=O)(=O)O | 0.8 µM | 27% | 29% | 
CS(=O)(=O)O.Cc1oc(-c2cc(Cl)ccc2Cl)nc1C(=O)N=C(N)N | 0.072 µM | 19% | 27% | 39%
Cc1[nH]c(-c2cc(F)cc(F)c2)nc1C(=O)N=C(N)N | 2.7 µM |  |  | 
Cc1oc(-c2cccc(F)c2)nc1C(=O)N=C(N)N | 4.2 µM |  |  | 
CS(=O)(=O)O.Cc1ccc(C)c(-c2nc(C(=O)N=C(N)N)c(C)o2)c1 | 0.22 µM | 59% | 9% | 47%
COc1ccccc1-c1nc(C(=O)N=C(N)N)c(C)[nH]1 | 3.1 µM |  |  | 
CS(=O)(=O)O.CS(=O)(=O)O.Cc1[nH]c(-c2cc(Cl)ccc2Cl)nc1C(=O)N=C(N)N | 0.1 µM | 59% | 25% | 40%
CS(=O)(=O)O.CS(=O)(=O)O.Cc1[nH]c(-c2ccccc2Cl)nc1C(=O)N=C(N)N | 1.4 µM | 69% | 35% | 50%
Cc1oc(-c2cccc(Cl)c2)nc1C(=O)N=C(N)N | 1.7 µM |  |  | 
Cc1[nH]c(-c2ccccc2F)nc1C(=O)N=C(N)N | 7.2 µM |  |  | 
Cc1[nH]c(-c2cccc(F)c2)nc1C(=O)N=C(N)N | 4.5 µM |  |  | 
Cc1[nH]c(-c2cc(F)ccc2F)nc1C(=O)N=C(N)N | 3 µM |  |  | 
Cc1cc(C)cc(-c2nc(C(=O)N=C(N)N)c(C)[nH]2)c1 | 5 µM |  |  | 
Cc1oc(-c2cc(F)cc(F)c2)nc1C(=O)N=C(N)N | 3.3 µM |  |  | 
CC(C)c1ccc(C(=O)N=C(N)N)cc1S(C)(=O)=O.CS(=O)(=O)O [CARIPORIDE MESYLATE] |  | 48% | 22% | 41%
COc1ccc(-c2nc(C(=O)N=C(N)N)c(C)[nH]2)cc1 | > 30 µM |  |  | 
COc1cccc(-c2nc(C(=O)N=C(N)N)c(C)[nH]2)c1OC | > 30 µM |  |  | 
